Data taken from article PMC11502502 (Nature cancer, 2024).
Like-named read-outs stand apart in the source and are kept apart here.

Assays:
[1] = Protein-binding assay with equilibrium dialysis in cell culture medium; assay type: in vitro ADME; settings: bovine, cell culture medium with 10% fetal calf serum
SU-DHL-5 = assay: CellTiter-Glo cell viability, SU-DHL-5; assay type: cell-based; settings: Homo sapiens, SU-DHL-5, 72 h
KMS-12-BM = assay: CellTiter-Glo cell viability, KMS-12-BM; assay type: cell-based; settings: Homo sapiens, 72 h
AMO-1 = assay: CellTiter-Glo cell viability, AMO-1; assay type: cell-based; settings: Homo sapiens, AMO1, 72 h
RPMI 8226 = assay: CellTiter-Glo cell viability, RPMI 8226; assay type: cell-based; settings: Homo sapiens, RPMI-8226, 72 h
OPM-2 = assay: CellTiter-Glo cell viability, OPM-2; assay type: cell-based; settings: Homo sapiens, OPM-2, 72 h
MOLP-8 = assay: CellTiter-Glo cell viability, MOLP-8; assay type: cell-based; settings: Homo sapiens, MOLP-8, 72 h
JJN-3 = assay: CellTiter-Glo cell viability, JJN-3; assay type: cell-based; settings: Homo sapiens, JJN-3, 72 h
KMS-12-PE = assay: CellTiter-Glo cell viability, KMS-12-PE; assay type: cell-based; settings: Homo sapiens, 72 h
DMS114 = assay: CellTiter-Glo cell viability, DMS114; assay type: cell-based; settings: Homo sapiens, DMS-114, 72 h
A-427 = assay: CellTiter-Glo cell viability, A-427; assay type: cell-based; settings: Homo sapiens, A-427, 72 h
HCC-1187 = assay: CellTiter-Glo cell viability, HCC-1187; assay type: cell-based; settings: Homo sapiens, HCC1187, 72 h
SNU398 = assay: CellTiter-Glo cell viability, SNU398; assay type: cell-based; settings: Homo sapiens, SNU-398, 72 h
HCC-2157 = assay: CellTiter-Glo cell viability, HCC-2157; assay type: cell-based; settings: Homo sapiens, HCC2157, 72 h
PA-1 = assay: CellTiter-Glo cell viability, PA-1; assay type: cell-based; settings: Homo sapiens, PA-1, 72 h
NCI-H82 = assay: CellTiter-Glo cell viability, NCI-H82; assay type: cell-based; settings: Homo sapiens, NCI-H82, 72 h
SNU-16 = assay: CellTiter-Glo cell viability, SNU-16; assay type: cell-based; settings: Homo sapiens, SNU-16, 72 h
A-431 = assay: CellTiter-Glo cell viability, A-431; assay type: cell-based; settings: Homo sapiens, A-431, 72 h
HMC1–8 = assay: CellTiter-Glo cell viability, HMC1–8; assay type: cell-based; settings: Homo sapiens, 72 h
SU-DHL-10 = assay: CellTiter-Glo cell viability, SU-DHL-10; assay type: cell-based; settings: Homo sapiens, SU-DHL10, 72 h
[2] = read-out: Anti-proliferative IC50
[3] = read-out: Antiproliferative IC50u

fraction unbound [1] | IC50 (SU-DHL-5; [2]) | IC50 (SU-DHL-5; [3]) | Compound | IC50 (KMS-12-BM; [2]) | IC50 (KMS-12-BM; [3]) | IC50 (AMO-1; [2]) | IC50 (AMO-1; [3]) | IC50 (RPMI 8226; [2]) | IC50 (RPMI 8226; [3]) | IC50 (OPM-2; [2]) | IC50 (OPM-2; [3]) | IC50 (MOLP-8; [2]) | IC50 (MOLP-8; [3]) | IC50 (JJN-3; [2]) | IC50 (JJN-3; [3]) | IC50 (KMS-12-PE; [2]) | IC50 (KMS-12-PE; [3]) | IC50 (DMS114; [2]) | IC50 (DMS114; [3]) | IC50 (A-427; [2]) | also measured
0.021 | 14 nM | 0.3 nM | Cc1c2c(nn1C)CSCc1cc(n(C)n1)CSc1cc(c3ccccc3c1)OCCCc1c(C(=O)O)n(C)c3c-2c(Cl)ccc13 [AZD5991] | 33 nM | 0.7 nM | 57 nM | 1.2 nM | 62 nM | 1.3 nM | 33 nM | 0.7 nM | 38 nM | 0.8 nM | 71 nM | 1.5 nM | 210 nM | 4.4 nM | 71 nM | 1.5 nM | 52 nM | IC50 (A-427; [3]): 1.1 nM; IC50 (HCC-1187; [2]): 52 nM; IC50 (HCC-1187; [3]): 1.1 nM; IC50 (SNU398; [2]): 52 nM; IC50 (SNU398; [3]): 1.1 nM; IC50 (HCC-2157; [2]): 95 nM; IC50 (HCC-2157; [3]): 2 nM; IC50 (PA-1; [2]): 105 nM; IC50 (PA-1; [3]): 2.2 nM; IC50 (NCI-H82; [2]): 162 nM; IC50 (NCI-H82; [3]): 3.4 nM; IC50 (SNU-16; [2]): 267 nM; IC50 (SNU-16; [3]): 5.6 nM; IC50 (A-431; [2]): 219 nM; IC50 (A-431; [3]): 4.6 nM; IC50 (HMC1–8; [2]): 329 nM; IC50 (HMC1–8; [3]): 6.9 nM
0.01 | 117 nM | 1.2 nM | CO[C@H]1/C=C/C[C@H](C)[C@@H](C)S(=O)(=O)NC(=O)c2ccc3c(c2)N(C[C@@H]2CC[C@H]21)C[C@@]1(CCCc2cc(Cl)ccc21)CO3 [AMG176] | 184 nM | 1.9 nM | 126 nM | 1.3 nM | 291 nM | 3 nM | 117 nM | 1.2 nM | 223 nM | 2.3 nM | 553 nM | 5.7 nM | 1160 nM | 12 nM | 282 nM | 2.9 nM | 563 nM | IC50 (SU-DHL-10; [2]): 87 nM; IC50 (SU-DHL-10; [3]): 0.9 nM; IC50 (A-427; [3]): 5.8 nM; IC50 (HCC-1187; [2]): 330 nM; IC50 (HCC-1187; [3]): 3.4 nM; IC50 (SNU398; [2]): 495 nM; IC50 (SNU398; [3]): 5.1 nM; IC50 (HCC-2157; [2]): 262 nM; IC50 (HCC-2157; [3]): 2.7 nM; IC50 (PA-1; [2]): 631 nM; IC50 (PA-1; [3]): 6.5 nM; IC50 (NCI-H82; [2]): 476 nM; IC50 (NCI-H82; [3]): 4.9 nM; IC50 (SNU-16; [2]): 583 nM; IC50 (SNU-16; [3]): 6 nM; IC50 (A-431; [2]): 641 nM; IC50 (A-431; [3]): 6.6 nM; IC50 (HMC1–8; [2]): 583 nM; IC50 (HMC1–8; [3]): 6 nM
